Laboratory results as given in the supplement of paper PMC6045584.
± gives the standard deviation of the averaged measurements.

Tests used:
[1] = compound: CN(C)C/C=C/C(=O)Nc1cc2c(Nc3ccc(F)c(Cl)c3)ncnc2cc1O[C@H]1CCOC1 [AFATINIB]; assay: surviving fraction relative to DMSO-only wells; higher = less growth inhibition; details: exposure time: 5 days
Method in brief: (§1)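 At 250–500 cells per well in 384-well plates, log-phase tumour cell lines were seeded and, 24 hours on, exposed continuously for five days to inhibitors at 0.5, 1, 5, 10, 50, 100, 500 and 1000 nM. Viability readout was CellTiter-Glo luminescence, reported as surviving fraction normalised to the median of DMSO-only wells.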

[2] = compound: Nc1nc2[nH]cnc2c(=S)[nH]1 [TIOGUANINE]; assay: as above; details: exposure time: 5 days
Method in brief: as §1

Row | Test System | surviving fraction ([1]; 0.5 nM) | surviving fraction ([1]; 1 nM) | surviving fraction ([1]; 5 nM) | surviving fraction ([1]; 10 nM) | surviving fraction ([1]; 50 nM) | surviving fraction ([1]; 100 nM) | surviving fraction ([1]; 500 nM) | surviving fraction ([1]; 1000 nM) | surviving fraction ([2]; 0.5 nM) | surviving fraction ([2]; 1 nM) | surviving fraction ([2]; 5 nM) | surviving fraction ([2]; 10 nM) | surviving fraction ([2]; 50 nM) | surviving fraction ([2]; 100 nM) | surviving fraction ([2]; 500 nM) | surviving fraction ([2]; 1000 nM)
1 | SIHA CERVIX | 1.05 ± 0.025 | 1.06 ± 0.069 | 1.02 ± 0.022 | 1.01 ± 0.064 | 1.03 ± 0.011 | 1.07 ± 0.085 | 0.845 ± 0.019 | 0.684 ± 0.052 | 0.848 ± 0.07 | 0.858 ± 0.097 | 0.994 ± 0.044 | 0.967 ± 0.084 | 0.97 ± 0.043 | 0.987 ± 0.078 | 0.817 ± 0.029 | 0.856 ± 0.029
2 | LM7 BONE | 1.02 ± 0.049 | 1 ± 0.14 | 1.02 ± 0.074 | 1.07 ± 0.026 | 1.02 ± 0.026 | 0.914 ± 0.091 | 0.443 ± 0.051 | 0.169 ± 0.013 | 0.966 ± 0.054 | 0.984 ± 0.068 | 1.02 ± 0.064 | 1.05 ± 0.068 | 1.08 ± 0.058 | 1.07 ± 0.039 | 0.965 ± 0.1 | 0.939 ± 0.13
3 | ASKA SYNOVIAL | 1.13 ± 0.029 | 1.09 ± 0.035 | 1.15 ± 0.083 | 1.1 ± 0.11 | 1.15 ± 0.029 | 1.14 ± 0.028 | 0.78 ± 0.023 | 0.404 ± 0.023 | 1.07 ± 0.051 | 1.09 ± 0.058 | 1.13 ± 0.08 | 1.08 ± 0.032 | 1.1 ± 0.068 | 1.073 ± 0.007 | 1.07 ± 0.044 | 1.03 ± 0.011
4 | MG63 BONE | 1.02 ± 0.046 | 1.03 ± 0.023 | 1.08 ± 0.022 | 1.058 ± 0.0069 | 1.05 ± 0.059 | 1.08 ± 0.017 | 0.951 ± 0.04 | 0.831 ± 0.038 | 0.974 ± 0.035 | 0.97 ± 0.015 | 1.01 ± 0.014 | 0.991 ± 0.007 | 1.02 ± 0.026 | 1.03 ± 0.026 | 0.989 ± 0.0069 | 0.958 ± 0.03
5 | 22RV1 PROSTATE | 1.03 ± 0.098 | 1.05 ± 0.063 | 1.01 ± 0.037 | 0.977 ± 0.087 | 0.984 ± 0.052 | 0.916 ± 0.028 | 0.737 ± 0.057 | 0.515 ± 0.065 | 0.97 ± 0.042 | 0.971 ± 0.042 | 0.99 ± 0.049 | 0.999 ± 0.0061 | 1.06 ± 0.067 | 0.99 ± 0.039 | 0.988 ± 0.079 | 0.94 ± 0.042
6 | HCC1954 BREAST | 0.969 ± 0.079 | 0.886 ± 0.021 | 0.763 ± 0.028 | 0.56 ± 0.0078 | 0.471 ± 0.094 | 0.479 ± 0.025 | 0.266 ± 0.038 | 0.145 ± 0.011 | 0.867 ± 0.18 | 0.986 ± 0.24 | 1.08 ± 0.075 | 0.96 ± 0.1 | 0.997 ± 0.18 | 0.911 ± 0.05 | 0.969 ± 0.054 | 0.871 ± 0.051
7 | HS57T BREAST | 1.05 ± 0.053 | 1.03 ± 0.056 | 1.13 ± 0.023 | 1.04 ± 0.051 | 1.11 ± 0.077 | 1.09 ± 0.076 | 0.787 ± 0.024 | 0.423 ± 0.057 | 0.9547 ± 0.0035 | 1.02 ± 0.087 | 0.99 ± 0.03 | 0.988 ± 0.029 | 0.928 ± 0.04 | 1.03 ± 0.06 | 0.928 ± 0.016 | 0.945 ± 0.064
8 | VCAP PROSTATE | 1.07 ± 0.14 | 1 ± 0.16 | 1.06 ± 0.093 | 1.06 ± 0.051 | 1.06 ± 0.064 | 1.03 ± 0.14 | 0.723 ± 0.14 | 0.405 ± 0.043 | 1.04 ± 0.18 | 0.99 ± 0.11 | 1.11 ± 0.13 | 1.11 ± 0.12 | 1.14 ± 0.094 | 1.08 ± 0.11 | 0.973 ± 0.082 | 1.02 ± 0.15
9 | CAL72 BONE | 1.09 ± 0.021 | 1.02 ± 0.061 | 1.07 ± 0.018 | 1.06 ± 0.042 | 1.11 ± 0.011 | 1.1 ± 0.036 | 0.984 ± 0.031 | 0.893 ± 0.053 | 1.08 ± 0.029 | 1.07 ± 0.027 | 1.09 ± 0.073 | 1.1 ± 0.056 | 1.14 ± 0.034 | 1.124 ± 0.0085 | 1.13 ± 0.029 | 1.13 ± 0.043
10 | OSHN BONE | 1.08 ± 0.03 | 1.07 ± 0.031 | 1.09 ± 0.042 | 1.07 ± 0.032 | 1.11 ± 0.032 | 1.11 ± 0.033 | 1.1 ± 0.031 | 1.06 ± 0.019 | 1.01 ± 0.037 | 1.02 ± 0.026 | 1.01 ± 0.035 | 1.02 ± 0.034 | 1.02 ± 0.048 | 1.04 ± 0.038 | 1.01 ± 0.039 | 0.9787 ± 0.007
11 | SAOS2 BONE | 1.15 ± 0.11 | 1.21 ± 0.067 | 1.15 ± 0.018 | 1.104 ± 0.0087 | 1.1 ± 0.013 | 1.06 ± 0.089 | 0.603 ± 0.0052 | 0.186 ± 0.034 | 1 ± 0.024 | 0.966 ± 0.031 | 1.034 ± 0.0081 | 0.937 ± 0.096 | 1.15 ± 0.014 | 1.15 ± 0.097 | 1.02 ± 0.027 | 1.01 ± 0.047
12 | HUO3N1 BONE | 1.03 ± 0.034 | 1 ± 0.019 | 1.06 ± 0.027 | 1.04 ± 0.068 | 1.03 ± 0.031 | 0.959 ± 0.017 | 0.824 ± 0.028 | 0.631 ± 0.034 | 0.992 ± 0.071 | 1.02 ± 0.098 | 1.1 ± 0.059 | 0.98 ± 0.058 | 1.02 ± 0.019 | 1.06 ± 0.049 | 1.06 ± 0.055 | 1.02 ± 0.018
13 | SG27 HEADNECK | 1 ± 0.09 | 0.981 ± 0.035 | 1.04 ± 0.041 | 1 ± 0.14 | 0.883 ± 0.012 | 0.966 ± 0.13 | 0.865 ± 0.093 | 0.831 ± 0.068 | 0.982 ± 0.054 | 0.995 ± 0.12 | 1.04 ± 0.091 | 0.984 ± 0.13 | 1 ± 0.089 | 1.02 ± 0.12 | 1.11 ± 0.024 | 0.953 ± 0.13
14 | SCC36 HEADNECK | 0.926 ± 0.088 | 0.719 ± 0.061 | 0.523 ± 0.037 | 0.457 ± 0.031 | 0.418 ± 0.027 | 0.376 ± 0.029 | 0.264 ± 0.0053 | 0.149 ± 0.017 | 1.03 ± 0.034 | 1.09 ± 0.028 | 1.16 ± 0.074 | 1.18 ± 0.078 | 1.24 ± 0.082 | 1.12 ± 0.091 | 1.13 ± 0.11 | 1.06 ± 0.1
15 | CAL120 BREAST | 0.955 ± 0.035 | 0.96 ± 0.0041 | 0.968 ± 0.035 | 0.928 ± 0.013 | 0.908 ± 0.032 | 0.852 ± 0.029 | 0.671 ± 0.01 | 0.471 ± 0.038 | 0.912 ± 0.028 | 0.943 ± 0.014 | 0.9412 ± 0.0032 | 0.919 ± 0.028 | 0.95 ± 0.021 | 0.939 ± 0.02 | 0.88 ± 0.035 | 0.826 ± 0.036
16 | HCT15 LARGE INTESTINE | 1.12 ± 0.03 | 1.05 ± 0.02 | 1.04 ± 0.064 | 1.05 ± 0.027 | 1.1 ± 0.052 | 1.06 ± 0.068 | 0.97 ± 0.081 | 0.632 ± 0.063 | 0.968 ± 0.012 | 0.913 ± 0.05 | 0.979 ± 0.016 | 0.967 ± 0.051 | 1.02 ± 0.067 | 1.06 ± 0.023 | 1.04 ± 0.015 | 0.995 ± 0.012
17 | HCC38 BREAST | 1.37 ± 0.28 | 1.23 ± 0.18 | 1.27 ± 0.074 | 1.26 ± 0.044 | 1.2 ± 0.2 | 1.17 ± 0.17 | 1 ± 0.18 | 0.749 ± 0.098 | 1.15 ± 0.31 | 1.3 ± 0.38 | 1.15 ± 0.29 | 1.28 ± 0.099 | 1.1 ± 0.24 | 1.08 ± 0.062 | 1.08 ± 0.32 | 0.95 ± 0.15
